Test results from ChEMBL document CHEMBL1127643, “Mechanism-based design, synthesis, and in vitro antimalarial testing of new 4-methylated trioxanes structurally related to artemisinin: the importance of a carbon-centered radical for antimalarial activity” (J Med Chem, 1994).
Values after ≈ are worked out from the molar mass of the structure shown.

Columns and labels:
[1] = system: Plasmodium falciparum; assay: In vitro antimalarial activity against Plasmodium falciparum D6 Africa; type: functional, organism-based
[2] = system: Plasmodium falciparum; assay: In vitro antimalarial activity against Plasmodium falciparum W-2 Indochina; type: functional, organism-based

SMILES | IC50 [1] [ng/mL] | IC50 [2] [ng/mL]
C[C@@H]1CC[C@H]2[C@@H](C)C(=O)O[C@@H]3O[C@@]4(C)CC[C@@H]1[C@]32OO4 [ARTEMISININ] | 8 (≈ 0.0283 µM) | 8 (≈ 0.0283 µM)
CO[C@H]1O[C@]2(C)OO[C@]13[C@H](CCO)CCC[C@@H]3C[C@@H]2C | 3.5 (≈ 0.0122 µM) | 4.5 (≈ 0.0157 µM)
CO[C@H]1O[C@]2(C)OO[C@]13[C@H](CCO)CCC[C@@H]3CC2(C)C | > 500 | > 500
CO[C@H]1O[C@]2(C)OO[C@]13[C@H](CCOCc1ccccc1)CCC[C@@H]3CC2(C)C | > 500 | > 500
CO[C@H]1O[C@]2(C)OO[C@]13[C@H](CCO)CCC[C@@H]3C[C@H]2C | > 500 | > 500
